From patent US12564638B2 (SHANGHAITECH UNIVERSITY, priority 2019, dated 2026)
Read-outs that look alike come from different tables or passages of the source.

What was measured:
Assay type in all cases: cell-based
[1] = system: HCC827 cells (EGFR Exon19 del, non-small cell lung cancer cells); assay: Cell viability assay (WST/CCK8), HCC827 cells; conditions: Homo sapiens, HCC827, 72 h, HCC827 (Exon19 Del), 72 hours, read-out: IC50 (half inhibitory concentration)
Procedure, shortened: (§1)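 Cells seeded at 3 000/well in RPMI1640 complete medium, dosed next day with compounds (top 10 μM, 3-fold, 10 points) for 72 h. Viability read with WST (CCK8) reagent; DMSO as negative control, EGFR TKIs as positive controls; IC50 determined.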

[2] = system: PC9 cells (EGFR Exon 19 del, non-small cell lung cancer cells); assay: Cell viability assay (WST/CCK8), PC9 cells; conditions: Homo sapiens, PC-9, PC9 (Exon19 Del), 72 hours, read-out: IC50 (half inhibitory concentration)
Procedure, shortened: as §1

[3] = system: BT474 cells (HER2 positive breast cancer cells); assay: Cell viability assay (CCK8), BT474 cells; conditions: Homo sapiens, BT-474, Table 10, BT474, 72 hours, read-out: IC50 (half inhibitory concentration)
Excerpt: The cell lines with abnormal EGFR expression used are as follows: • HCC827 cells (EGFR Exon19 del, non-small cell lung cancer cells); • PC9 cells (EGFR Exon 19 del, non-small cell lung cancer cells); • PC9BracA1 (EGFR Exon 19 del+T790M, non-small cell lung cancer cells) • H1975 (EGFR Exon T790M+L858R mutation, non-small cell lung cancer cell line) • BT474 cells (HER2 positive breast cancer cells)
All of the half inhibitory concentrations (IC50) of these compounds of the present invention were determined with WST reagent from Fuyuan Biotec Company. The specific experiment procedures are as follows: Cancer cells were planted in 96-well-plate at the density of 3 000 cells per well with 100 μL RPMI1640 completed culture medium. In the next day, compounds with indicated concentrations were added to the cells, DMSO was used as the negative control and the EGFR TKIs were used to treat cells as the positive groups. After 72 hours drug treatment, cell viability was measured by using the WST reagent following the instructions. The growth inhibition curve of the compounds on cells were plotted by Prism GraphPad, and the compounds IC50 calculated from it.
The cell viability assays were taken to determine the anti-tumor activity of these indicated compounds in BT474 cells, which can overexpress HER2 protein. The cells were treated with the gradient concentration of these compounds (the maximum concentration: 10 μM; 3-fold dilution ratio, 10 concentration gradients) for 72 hours and then incubated with the CCK8 reagent to determine the cell viability.

[4] = Table 6, canertinib-based compounds, WST

| Compound | IC50 [1, 4] [nM] | IC50 [2, 4] [nM] | IC50 [3] [nM] | IC50 ([1]; WST (CCK8)) [nM] | IC50 ([2]; WST (CCK8)) [nM] |
| --- | --- | --- | --- | --- | --- |
| C=CC(=O)Nc1cc2c(Nc3ccc(F)c(Cl)c3)ncnc2cc1OCCCN1CCN(C(=O)CCC(=O)NCCOCCNc2cccc3c2C(=O)N(C2CCC(=O)NC2=O)C3=O)CC1 (stereo not drawn) [SIAIS249099, 4-(4-(3-((6-acrylamido-4-((3-chloro-4-fluorophenyl)amino)quinazolin-7-yl)oxy)propyl)piperazin-1-yl)-N-(2-(2-((2-(2,6-dioxopiperidin-3-yl)-1,3-dioxoisoindolin-4-yl)amino)ethoxy)ethyl)-4-oxobutanamide] | 11.8 | 29.7 | 35.6 |  |  |
| C=CC(=O)Nc1cc2c(Nc3ccc(F)c(Cl)c3)ncnc2cc1OCCCN1CCN(C(=O)CCc2ccc(CCC(=O)N[C@H](C(=O)N3C[C@H](O)C[C@H]3C(=O)NCc3ccc(-c4scnc4C)cc3)C(C)(C)C)cc2)CC1 [SIAIS249102, (2S,4R)-1-((S)-2-(3-(4-(3-(4-(3-((6-acrylamido-4-((3-chloro-4-fluorophenyl)amino)quinazolin-7-yl)oxy)propyl)piperazin-1-yl)-3-oxopropyl)phenyl)propanamido)-3,3-dimethylbutanoyl)-4-hydroxy-N-(4-(4-methylthiazol-5-yl)benzyl)pyrrolidine-2-carboxamide] | 25.2 | 16 | 3.8 |  |  |
| COc1cc2ncnc(Nc3ccc(F)c(Cl)c3)c2cc1NC(=O)/C=C/CN1CCC(N2CCN(C(=O)CCCCCCSc3cccc4c3C(=O)N(C3CCC(=O)NC3=O)C4=O)CC2)CC1 (stereo not drawn) [SIAIS262033, (E)-N-(4-((3-chloro-4-fluorophenyl)amino)-7-methoxyquinazolin-6-yl)-4-(4-(4-(7-((2-(2,6-dioxopiperidin-3-yl)-1,3-dioxoisoindolin-4-yl)thio)heptanoyl)piperazin-1-yl)piperidin-1-yl)but-2-enamide] |  |  | 0.7 | ~1 | 3.8 |
| COc1cc2ncnc(Nc3ccc(F)c(Cl)c3)c2cc1NC(=O)/C=C/CN1CCC(NC(=O)CCCCSc2cccc3c2CN(C2CCC(=O)NC2=O)C3=O)CC1 (stereo not drawn) [SIAIS262113, (E)-N-(1-(4-((4-((3-chloro-4-fluorophenyl)amino)-7-methoxyquinazolin-6-yl)amino)-4-oxobut-2-en-1-yl)piperidin-4-yl)-5-((2-(2,6-dioxopiperidin-3-yl)-1-oxoisoindolin-4-yl)thio)pentanamide] |  |  | 67.7 | 49 | 3.9 |

Other lines, results leading:

| IC50 [1, 4] [nM] | IC50 [2, 4] [nM] | IC50 [3] [nM] | IC50 ([1]; WST (CCK8)) [nM] | IC50 ([2]; WST (CCK8)) [nM] | Compound |
| --- | --- | --- | --- | --- | --- |
|  |  | 90 | 4 | 11.9 | COc1cc2ncnc(Nc3ccc(F)c(Cl)c3)c2cc1NC(=O)/C=C/CN1CCC(NC(=O)CCCCCSc2cccc3c2CN(C2CCC(=O)NC2=O)C3=O)CC1 (stereo not drawn) [SIAIS262114, (E)-N-(1-(4-((4-((3-chloro-4-fluorophenyl)amino)-7-methoxyquinazolin-6-yl)amino)-4-oxobut-2-en-1-yl)piperidin-4-yl)-6-((2-(2,6-dioxopiperidin-3-yl)-1-oxoisoindolin-4-yl)thio)hexanamide] |
|  |  | 83 | 11 | 3.3 | COc1cc2ncnc(Nc3ccc(F)c(Cl)c3)c2cc1NC(=O)/C=C/CN1CCC(NCCCC#Cc2cccc3c2CN(C2CCC(=O)NC2=O)C3=O)CC1 (stereo not drawn) [SIAIS262116, (E)-N-(4-((3-chloro-4-fluorophenyl)amino)-7-methoxyquinazolin-6-yl)-4-(4-((5-(2-(2,6-dioxopiperidin-3-yl)-1-oxoisoindolin-4-yl)pent-4-yn-1-yl)amino)piperidin-1-yl)but-2-enamide] |
|  |  | 484 | 16 | 31.2 | COc1cc2ncnc(Nc3ccc(F)c(Cl)c3)c2cc1NC(=O)/C=C/CN1CCC(NCCCCC#Cc2cccc3c2CN(C2CCC(=O)NC2=O)C3=O)CC1 (stereo not drawn) [SIAIS262117, (E)-N-(4-((3-chloro-4-fluorophenyl)amino)-7-methoxyquinazolin-6-yl)-4-(4-((6-(2-(2,6-dioxopiperidin-3-yl)-1-oxoisoindolin-4-yl)hex-5-yn-1-yl)amino)piperidin-1-yl)but-2-enamide] |
